# From patent US8268861B2, “P2X7R antagonists and their use” (Affectis Pharmaceuticals AG, priority 2009, dated 2012)
# pIC50: −log10 of the molar value.
# Tests used:
# IL-1 beta secretion = IL-1 beta secretion by LPS/BzATP-stimulated isolated human monocytes (macrophages), ELISA; assay type: cell-based; conditions: 1 μg/mL LPS 2 hours, 100 μM BzATP 30 minutes, compound added 5 minutes before BzATP, FIG. 1, p<0.01
# Method: The effects of compounds of the present invention on IL-1 beta secretion is assessed using isolated human monocytes.
# Briefly, human monocytes were purified from human blood by Ficoll-Paque from Buffy coats as follows. The Buffy coat is a greyish white layer of white blood cells and platelets that accumulates on the surface of sedimented erythrocytes when blood is allowed to stand or is centrifuged. Each Buffy coat (one per donor) was diluted with PBS and 20 ml added on top of 15 ml of Ficoll-Paque. The gradient was centrifuged at 900 g for 20 min at room temperature. […] At day 5, the cells were counted, resuspended in RPMI 1640 supplemented with 5% human serum at a concentration of 1×10^6/ml and plated onto a 24 wells plate (5×10^5 cells/well). […]
# The day of experiment, the macrophages were pre-stimulated for 2 hours with 1 μg/mL LPS at 37° C. […] After incubation, the supernatants were collected by centrifugation (250 g for 5 minutes) and IL-1β secretion was measured by using the human IL-1 beta/IL-1F2 Quantikine ELISA Kit following manufacturer's instructions. […] The O.D. at 450 nm was measured for each data points and the IL-1β concentration calculated based on a standard curve. The […] concentration was further calculated to have a concentration in pg/mL/10E+6 cells, together with its standard deviation.
# human P2X7R = target: T1, human P2X7R (Homo sapiens, UniProt Q99572); assay: Inhibition of Bz-ATP-stimulated calcium influx in Hek293 cells stably transfected with human P2X7R (Fluo-4-AM); assay type: cell-based; conditions: Hek293 cells expressing human P2X7R, 100 μM Bz-ATP, 15 minute incubation with test compound
# T1 construct: expressed in transfected cells
# T1 sequence (Q99572 1-595): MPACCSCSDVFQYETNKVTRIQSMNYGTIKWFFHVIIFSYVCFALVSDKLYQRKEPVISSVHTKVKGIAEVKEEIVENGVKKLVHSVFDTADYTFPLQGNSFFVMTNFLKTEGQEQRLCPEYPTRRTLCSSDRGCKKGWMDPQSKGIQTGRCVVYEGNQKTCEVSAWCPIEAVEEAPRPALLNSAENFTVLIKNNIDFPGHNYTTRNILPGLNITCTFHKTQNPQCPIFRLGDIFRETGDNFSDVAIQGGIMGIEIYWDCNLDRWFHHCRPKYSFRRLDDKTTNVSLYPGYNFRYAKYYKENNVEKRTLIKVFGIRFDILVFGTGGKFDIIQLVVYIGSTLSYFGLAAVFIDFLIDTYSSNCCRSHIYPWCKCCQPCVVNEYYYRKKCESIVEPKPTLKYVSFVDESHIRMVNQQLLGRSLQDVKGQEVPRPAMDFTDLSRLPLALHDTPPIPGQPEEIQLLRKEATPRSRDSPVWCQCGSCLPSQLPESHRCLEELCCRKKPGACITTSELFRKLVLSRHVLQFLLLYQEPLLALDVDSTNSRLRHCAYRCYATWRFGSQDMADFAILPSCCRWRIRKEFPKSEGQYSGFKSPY
# Method: Inhibition of P2X7R activity by the compounds of the present invention is assessed by measuring calcium influx in Hek293 cells (ECACC No. 85120602) which have been stably transfected with a cDNA for the human P2X7R.
# Hek293 cells expressing P2X7R were generated by lipofectamine transfection of the human P2X7R cDNA (Genbank accession number BC011913) under the control of the human cytomegalovirus immediate-early (CMV) promoter and inserted into the pcDNA3.1 vector (Invitrogen). […]
# Inhibition of Bz-ATP-stimulated P2X7R by test compounds was monitored by measuring changes in calcium influx using the Fluo-4-AM fluorescent dye according to the manufacturer's recommendations (Molecular Devices Corporation, U.S.A.). […] After a 15 minute incubation, 100 μM Bz-ATP was added and fluorescence was measured in a FlexStation II (Molecular Devices, U.S.A.) according to the following parameters: 485 nm Excitation Wavelength; 525 nm Emission Wavelength; 515 nm Emission Cut-off; 100 μl Pipette Height; 25 μl Transfer Volume; 5 fold Compound Concentration; 3 rate Addition Speed. […] The fluorescence data were processed using a lag time of 15 seconds, recording 45 seconds, zero baseline calibrated using 2 points, and % baseline multiplier set at 3. […]
compound,measurement,setting,value
"O=C(CC1CCCCCC1)Nc1cn(CCO)c2cccc(Cl)c12 [Example 2, N-(4-chloro-1-(2-hydroxyethyl)-1H-indol-3-yl)-2-cycloheptylacetamide]",IL-1beta secretion,IL-1 beta secretion,reduced IL-1beta secretion
same,pIC50,human P2X7R,~8.42
